Measured values: US20210196654A1, “METHOD OF TREATING CONDITIONS” (Clexio Biosciences Ltd., priority 2019, published 2021)

Columns and labels:
[1] = Repeated dose 28 day toxicokinetics; conditions: for AUC(0-inf) / AUC(0-t) / Cmax / half-life / Tmax: Sprague Dawley, rat, in vivo, po; for AUC(0-t): AUC0-t
Protocol: The objective of the study was to assess the potential toxicity, neurobehavioral effects, and toxicokinetics (TK) of esketamine when administered orally, via gavage, to Sprague Dawley rats for 28 days and to evaluate recovery during a 14-day drug-free period. Fifty male and 50 female rats were randomized into 4 groups (15/sex/Groups 1 and 4; 10/sex/Groups 2 and 3). Esketamine was administered via oral gavage once daily for 28 consecutive days to males at 0 (vehicle control), 6, 10 or 30 mg/kg/day and females at 0 (vehicle control), 2, 10 or 20 mg/kg/day in a dose volume of 10 mL/kg. Animals were observed until euthanized and necropsied on Day 29 (10/sex/group) or 43 (5/sex from Groups 1 and 4). Toxicity was evaluated based on mortality, clinical observations, body weights, food consumption, ophthalmology, motor activity, functional observational battery, clinical pathology (clinical chemistry, hematology, coagulation and urinalysis), organ weights, anatomic (macroscopic or microscopic) pathology. Toxicokinetic animals (3/sex/Group 1; 6/sex/Groups 2, 3, and 4) were similarly dosed and bled on Day 1 and during Week 4 for toxicokinetic analysis.

[2] = system: healthy male and female subjects; test: Single dose crossover study in healthy volunteers, adverse events; type: in vivo, human
Excerpt: A total of 128 TEAEs (treatment-emergent adverse event) were reported by 15 of 16 (94%) subjects of which 79 TEAEs reported by 14 of 16 (88%) subjects were to be related to the study drug. Overall, a total of 14 of 128 TEAEs reported by 4 (25%) subjects were of moderate severity and 114 of 128 TEAEs reported by 15 (94%) subjects were of mild severity. […] The most frequently occurring adverse events (reported more than twice) were headache, dizziness, hypokinesia, feeling abnormal, fatigue, euphoric mood inappropriate affect, nausea and hyperhidrosis. Table 4 presents the frequency of the most frequently reported related TEAEs as a percentage of the subjects that experienced an adverse effect per treatment.

[3] = female, 2 mg/kg, Day 1, female rats, 2 mg/kg oral
[4] = female, 2 mg/kg, Day 28, female rats, 2 mg/kg oral
[5] = female, 10 mg/kg, Day 1, female rats, 10 mg/kg oral
[6] = female, 10 mg/kg, Day 28, female rats, 10 mg/kg oral
[7] = female, 20 mg/kg, Day 1, female rats, 20 mg/kg oral
[8] = female, 20 mg/kg, Day 28, female rats, 20 mg/kg oral
[9] = male, 6 mg/kg, Day 1, male rats, 6 mg/kg oral
[10] = male, 6 mg/kg, Day 28, male rats, 6 mg/kg oral
[11] = male, 10 mg/kg, Day 1, male rats, 10 mg/kg oral
[12] = male, 10 mg/kg, Day 28, male rats, 10 mg/kg oral
[13] = male, 30 mg/kg, Day 1, male rats, 30 mg/kg oral
[14] = male, 30 mg/kg, Day 28, male rats, 30 mg/kg oral

With CN[C@]1(c2ccccc2Cl)CCCCC1=O [esketamine, (2S)-2-(2-Chlorophenyl)-2-(methylamino) cyclohexanone] the “Dose normalized AUC0-inf” value ([1]; Day 1, female rats, 2 mg/kg oral) was 29.0 (ng*h/ml)/(mg/kg), the “Dose normalized AUC0-inf” value ([1]; Day 1, female rats, 10 mg/kg oral) was 44.0 (ng*h/ml)/(mg/kg) and the “Dose normalized AUC0-inf” value ([1]; Day 1, female rats, 20 mg/kg oral) was 49.8 (ng*h/ml)/(mg/kg). The “Dose normalized AUC0-inf” value ([1]; Day 1, male rats, 6 mg/kg oral) was 17.2 (ng*h/ml)/(mg/kg), the “Dose normalized AUC0-inf” value ([1]; Day 1, male rats, 10 mg/kg oral) was 18.1 (ng*h/ml)/(mg/kg) and the “Dose normalized AUC0-inf” value ([1]; Day 1, male rats, 30 mg/kg oral) was 19.5 (ng*h/ml)/(mg/kg). The “Dose normalized AUC0-t” value ([1]; Day 28, female rats, 2 mg/kg oral) was 31.0 (ng*h/ml)/(mg/kg), the “Dose normalized AUC0-t” value ([1]; Day 28, female rats, 10 mg/kg oral) was 51.3 (ng*h/ml)/(mg/kg) and the “Dose normalized AUC0-t” value ([1]; Day 28, female rats, 20 mg/kg oral) was 53.2 (ng*h/ml)/(mg/kg). The “Dose normalized AUC0-t” value ([1]; Day 28, male rats, 6 mg/kg oral) was 10.2 (ng*h/ml)/(mg/kg), the “Dose normalized AUC0-t” value ([1]; Day 28, male rats, 10 mg/kg oral) was 17.9 (ng*h/ml)/(mg/kg) and the “Dose normalized AUC0-t” value ([1]; Day 28, male rats, 30 mg/kg oral) was 19.2 (ng*h/ml)/(mg/kg). For the same compound, the “sex difference in exposure” value ([1]; after normalization for dose level differences) was “males had lower exposures than females”, the AUC(0-inf) ([1]; female, 2 mg/kg) was 58 ng·h/mL and the AUC(0-t) [1, 3] was 57 ng·h/mL. For the same compound, the AUC(0-t) [1, 4] was 62 ng·h/mL, the Cmax [1, 3] was 67.2 ng/mL and the Cmax [1, 4] was 133 ng/mL. For the same compound, the half-life ([1]; female, 2 mg/kg, t1/2, Day 1, female rats, 2 mg/kg oral) was 30 min, the Tmax [1, 3] was 10.2 min and the Tmax [1, 4] was 10.2 min. The AUC(0-inf) ([1]; female, 10 mg/kg) was 440 ng·h/mL, the AUC(0-t) [1, 5] was 418 ng·h/mL and the AUC(0-t) [1, 6] was 514 ng·h/mL. The Cmax [1, 5] was 295 ng/mL, the Cmax [1, 6] was 768 ng/mL and the half-life ([1]; female, 10 mg/kg, t1/2, Day 1, female rats, 10 mg/kg oral) was 42 min. The half-life ([1]; female, 10 mg/kg, t1/2, Day 28, female rats, 10 mg/kg oral) was 24 min, the Tmax [1, 5] was 10.2 min and the Tmax [1, 6] was 10.2 min. The AUC(0-inf) ([1]; female, 20 mg/kg) was 995 ng·h/mL, the AUC(0-t) [1, 7] was 993 ng·h/mL and the AUC(0-t) [1, 8] was 1060 ng·h/mL. For the same compound, the Cmax [1, 7] was 672 ng/mL, the Cmax [1, 8] was 1450 ng/mL and the half-life ([1]; female, 20 mg/kg, t1/2, Day 1, female rats, 20 mg/kg oral) was 54 min. It also gave a half-life ([1]; female, 20 mg/kg, t1/2, Day 28, female rats, 20 mg/kg oral) of 36 min, a Tmax [1, 7] of 10.2 min and a Tmax [1, 8] of 10.2 min. For the same compound, the “Cmax Day 28 vs Day 1” value ([1]; females) was “higher on Day 28”, the “exposure increase with dose” value ([1]; females, 2 to 20 mg/kg/day) was “slightly greater than dose-proportional” and the AUC(0-inf) ([1]; male, 6 mg/kg) was 103 ng·h/mL. For the same compound, the AUC(0-t) [1, 9] was 99 ng·h/mL, the AUC(0-t) [1, 10] was 61 ng·h/mL and the Cmax [1, 9] was 109 ng/mL. The Cmax [1, 10] was 113 ng/mL, the half-life ([1]; male, 6 mg/kg, t1/2, Day 1, male rats, 6 mg/kg oral) was 48 min and the half-life ([1]; male, 6 mg/kg, t1/2, Day 28, male rats, 6 mg/kg oral) was 36 min. It also gave a Tmax [1, 9] of 10.2 min, a Tmax [1, 10] of 10.2 min and an AUC(0-inf) ([1]; male, 10 mg/kg) of 181 ng·h/mL. It also gave an AUC(0-t) [1, 11] of 175 ng·h/mL, an AUC(0-t) [1, 12] of 179 ng·h/mL and a Cmax [1, 11] of 179 ng/mL. The Cmax [1, 12] was 211 ng/mL, the half-life ([1]; male, 10 mg/kg, t1/2, Day 1, male rats, 10 mg/kg oral) was 42 min and the half-life ([1]; male, 10 mg/kg, t1/2, Day 28, male rats, 10 mg/kg oral) was 36 min. The Tmax [1, 11] was 10.2 min, the Tmax [1, 12] was 10.2 min and the AUC(0-inf) ([1]; male, 30 mg/kg) was 585 ng·h/mL. It also gave an AUC(0-t) [1, 13] of 580 ng·h/mL, an AUC(0-t) [1, 14] of 575 ng·h/mL and a Cmax [1, 13] of 296 ng/mL. It also gave a Cmax [1, 14] of 398 ng/mL, a half-life ([1]; male, 30 mg/kg, t1/2, Day 1, male rats, 30 mg/kg oral) of 72 min and a half-life ([1]; male, 30 mg/kg, t1/2, Day 28, male rats, 30 mg/kg oral) of 90 min. The Tmax [1, 13] was 10.2 min, the Tmax [1, 14] was 30 min and the “exposure increase with dose” value ([1]; males, 6 to 30 mg/kg/day) was “generally dose-proportional”. For the same compound, the “Dizziness, related TEAE, percentage of subjects” value ([2]; 0.3 mg/kg iv) was 6%, the “Euphoric mood, related TEAE, percentage of subjects” value ([2]; 0.3 mg/kg iv) was 19% and the “Fatigue, related TEAE, percentage of subjects” value ([2]; 0.3 mg/kg iv) was 6%. The “Feeling abnormal, related TEAE, percentage of subjects” value ([2]; 0.3 mg/kg iv) was 13%, the “Headache, related TEAE, percentage of subjects” value ([2]; 0.3 mg/kg iv) was 19% and the “Hypokinesia, related TEAE, percentage of subjects” value ([2]; 0.3 mg/kg iv) was 6%. For the same compound, the “Inappropriate affect, related TEAE, percentage of subjects” value ([2]; 0.3 mg/kg iv) was 6%, the “Nausea, related TEAE, percentage of subjects” value ([2]; 0.3 mg/kg iv) was 6% and the “Feeling abnormal, related TEAE, percentage of subjects” value ([2]; 20 mg oral solution) was 19%. The “Headache, related TEAE, percentage of subjects” value ([2]; 20 mg oral solution) was 19%, the “Inappropriate affect, related TEAE, percentage of subjects” value ([2]; 20 mg oral solution) was 6% and the “Dizziness, related TEAE, percentage of subjects” value ([2]; 20 mg oral tablet) was 13%. For the same compound, the “Fatigue, related TEAE, percentage of subjects” value ([2]; 20 mg oral tablet) was 7%, the “Feeling abnormal, related TEAE, percentage of subjects” value ([2]; 20 mg oral tablet) was 7% and the “Hyperhidrosis, related TEAE, percentage of subjects” value ([2]; 20 mg oral tablet) was 7%. For the same compound, the “Dizziness, related TEAE, percentage of subjects” value ([2]; 100 mg oral tablet) was 13%, the “Euphoric mood, related TEAE, percentage of subjects” value ([2]; 100 mg oral tablet) was 13% and the “Feeling abnormal, related TEAE, percentage of subjects” value ([2]; 100 mg oral tablet) was 20%. The “Headache, related TEAE, percentage of subjects” value ([2]; 100 mg oral tablet) was 13%, the “Hyperhidrosis, related TEAE, percentage of subjects” value ([2]; 100 mg oral tablet) was 7% and the “Hypokinesia, related TEAE, percentage of subjects” value ([2]; 100 mg oral tablet) was 13%. For the same compound, the “Inappropriate affect, related TEAE, percentage of subjects” value ([2]; 100 mg oral tablet) was 7%, the “Nausea, related TEAE, percentage of subjects” value ([2]; 100 mg oral tablet) was 20% and the “subjects reporting TEAEs of moderate severity” value ([2]; 4 subjects) was 25%. For the same compound, the “subjects reporting TEAEs related to the study drug” value ([2]; 14 of 16 subjects) was 88%, the “subjects reporting TEAEs” value ([2]; 15 of 16 subjects) was 94% and the “subjects reporting TEAEs of mild severity” value ([2]; 15 subjects) was 94%. For the same compound, the tolerability ([2]; 15 subjects who completed the study) was “generally well tolerated”, the “TEAEs related to the study drug” value ([2]; all treatments) was 79 and the “severe TEAEs or SAEs” value ([2]; all treatments) was “No severe TEAEs or SAEs were reported”. For the same compound, the “total TEAEs reported” value ([2]; all treatments, 16 subjects) was 128, the “TEAEs of mild severity” value ([2]; of 128 TEAEs) was 114 and the “TEAEs of moderate severity” value ([2]; of 128 TEAEs) was 14.
